Experimental findings from patent US20240109842A1, “ACRYLAMIDE COMPOUNDS” (OTSUKA PHARMACEUTICAL CO., LTD., priority 2019, published 2024) are described below.

Where two headings read alike, the source gives them in different places.

The assay relates to immortalized megakaryocyte cell line. Put plainly: Test Example 1: platelet production, shake culturing. Type of assay: cell-based. Particulars: for fold induction at 10 µM: Platelet, 144 h, read-out: Amount of platelet production (vs. Control); for Amount of platelet production (vs. Control): aryl hydrocarbon receptor antagonist Compound A5 0.1 μM added at cell seeding, counted after 6 days. On the procedure:
The immortalized megakaryocyte cell line obtained according to the method described in WO 2016/204256 was washed twice with D-PBS(−) and then cultured in medium not containing doxycycline to terminate forced expression (cultured under conditions where gene expression is OFF). Shake culturing at 100 rpm was performed in the following medium after the cells were seeded in a 125-mL polycarbonate Erlenmeyer flask (Corning #431143) at 25 mL/flask and a seeding density of 1×10^5 cells/mL. Culturing conditions were 37° C. and 5% CO2. The medium was obtained by adding the following components to IMDM serving as the basal medium (concentrations indicate final concentrations). • FBS 15% • L-Glutamine 2 mM • ITS 100-fold dilution • MTG 450 μM • Ascorbic acid 50 μg/mL • SCF 50 ng/mL • TA-316 0.1 μg/mL • ADAM inhibitor 15 μM • ROCK inhibitor 0.5 μM […] After culturing for 6 days in total, the number of platelets was measured. The measurement method was as follows. The same operation was performed for control. At 6 days after initiation of the culturing under conditions where gene expression was OFF, a part of the culture supernatant was collected, and suspended with the following antibody and Flow-Count Fluorospheres (Beckman Coulter #7547053) to perform staining. • APC-labeled anti-CD41 antibody (BioLegend #303710) • eFluor 450-labeled anti-CD42a antibody (eBioscience #48-0428-42) • PE-labeled anti-CD42b antibody (BioLegend #303906) At 30 minutes after staining, number of platelets (CD41, CD42a and CD42b-positive cells) was counted by using FACSVerse (manufactured by BD Japan) with Flow-Count Fluorospheres. The number of platelets was given as a percentage of the control.

The mark [1] stands for this setting: DMSO added at cell seeding (no AhR antagonist), compound 10 μM added at Day 3, platelets (CD41, CD42a, CD42b-positive) counted after 6 days.

`Cc1cccc2c(/C=C/C(=O)NCCc3ccccc3-c3ncccn3)c[nH]c12` [Example 46]: the fold induction at 10 µM under setting [1] was in the range of 1.5 to 6.5. Further, the “Amount of platelet production (vs. Control)” value (“Amount … (vs. Control)” below) (compound 10 μM added at Day 3) is recorded as “++ (not less than 6.5 times)”.
For `CCNc1ccccc1CCNC(=O)/C=C/c1c[nH]c2c(OC)cccc12` [Example 5] the same measures were 1.5 to 6.5 and “++ (not less than 6.5 times)”.
In the same order, the values of `COc1cccc2c(/C=C/C(=O)NCCc3ccccc3-c3ccncn3)c[nH]c12` [Example 34] are 1.5 to 6.5 and “++ (not less than 6.5 times)”.
Regarding `COC(=O)n1cc(/C=C/C(=O)NCCc2ccccc2-c2ncc(OC)cn2)c2cccc(OC)c21` [Example 55], under setting [1], the fold induction at 10 µM is 1.5 to 6.5. Where the note is “compound 10 μM added at Day 3”, the “Amount … (vs. Control)” value is given as “++ (not less than 6.5 times)”.
For `COc1cccc2c(/C=C/C(=O)NCCc3sccc3-c3cccs3)c[nH]c12` [Example 30] the same measures were 1.5 to 6.5 and “++ (not less than 6.5 times)”.
In the same order, the values of `COc1cccc2c(/C=C/C(=O)NCCc3ccccc3-n3cccn3)c[nH]c12` [Example 37] are 1.5 to 6.5 and “++ (not less than 6.5 times)”.
As to `COc1cccc2c(/C=C/C(=O)NCCc3ccccc3-c3ncco3)c[nH]c12` [Example 15], the fold induction at 10 µM is above 6.5. Moreover, the “Amount … (vs. Control)” value (compound 10 μM added at Day 3) was “++ (not less than 6.5 times)”.
For `COc1cccc2c(/C=C/C(=O)NCCc3sccc3-c3ncccn3)c[nH]c12` [Example 45, (E)-3-(7-methoxy-1H-indol-3-yl)-N-[2-(3-pyrimidin-2-ylthiophen-2-yl)ethyl]prop-2-enamide], the fold induction at 10 µM under setting [1] was 1.5 to 6.5. Moreover, the “Amount … (vs. Control)” value (compound 10 μM added at Day 3) was “++ (not less than 6.5 times)”.
In the same order, the values of `COc1cccc2c(/C=C/C(=O)NCCc3ccccc3-c3ncccn3)cn(C)c12` [Example 53] are 1.5 to 6.5 and “++ (not less than 6.5 times)”.
For `COCCn1cc(/C=C/C(=O)NCCc2ccccc2-c2ncccn2)c2cccc(OC)c21` [Example 54] the same measures were 1.5 to 6.5 and “++ (not less than 6.5 times)”.
On to `COc1cccc2c(/C=C/C(=O)NCCc3sccc3-c3ccccc3)c[nH]c12` [Example 21], for which the fold induction at 10 µM is 1.5 to 6.5. The “Amount … (vs. Control)” value (compound 10 μM added at Day 3) is “++ (not less than 6.5 times)”.
For the compound `COc1cccc2c(/C=C/C(=O)NCCc3cccc4ccc(C)nc34)c[nH]c12` [Example 42], the fold induction at 10 µM under setting [1] was in the range of 1.5 to 6.5. Besides, the “Amount … (vs. Control)” value (compound 10 μM added at Day 3) is on record as “++ (not less than 6.5 times)”.
For the compound `COc1nccc2c(/C=C/C(=O)NCCc3ccccc3-c3ncccn3)c[nH]c12` [Example 49], under setting [1], the fold induction at 10 µM fell in the range of 1.5 to 6.5. For the same compound, the “Amount … (vs. Control)” value (compound 10 μM added at Day 3) is recorded as “++ (not less than 6.5 times)”.
Regarding `COC(=O)n1cc(/C=C/C(=O)NCCc2ccccc2-c2ccccc2)c2cccc(OC)c21` [Example 43], under setting [1], the fold induction at 10 µM was in the range of 1.5 to 6.5. For the same compound, the “Amount … (vs. Control)” value (compound 10 μM added at Day 3) is on record as “++ (not less than 6.5 times)”.
`COc1cccc2c(/C=C/C(=O)NCCc3ccccc3-c3ccccc3)c[nH]c12` [Example 2]: the fold induction at 10 µM lay within 1.5 to 6.5. In addition, where the note is “compound 10 μM added at Day 3”, the “Amount … (vs. Control)” value is reported as “++ (not less than 6.5 times)”.
In the case of `COc1cccc2c(/C=C/C(=O)NCCc3ccccc3-c3ccco3)c[nH]c12` [Example 26], under setting [1], the fold induction at 10 µM was in the range of 1.5 to 6.5. Besides, for the setting “compound 10 μM added at Day 3”, the “Amount … (vs. Control)” value is “++ (not less than 6.5 times)”.
For `O=C(/C=C/c1c[nH]c2c(Cl)cccc12)NCCc1ccccc1-c1ncccn1` [Example 48] the same measures were 1.5 to 6.5 and “++ (not less than 6.5 times)”.
In the case of `O=C(/C=C/c1c[nH]c2ccccc12)NCCc1ccccc1-c1ncccn1` [Example 47, (E)-3-(1H-indol-3-yl)-N-[2-(2-pyrimidin-2-ylphenyl)ethyl]prop-2-enamide], the fold induction at 10 µM under setting [1] lay within 1.5 to 6.5. Also, where the note is “compound 10 μM added at Day 3”, the “Amount … (vs. Control)” value is given as “++ (not less than 6.5 times)”.
In the same order, the values of `COc1cccc2c(/C=C/C(=O)NCCc3sccc3-c3ccco3)c[nH]c12` [Example 31] are 1.5 to 6.5 and “++ (not less than 6.5 times)”.
In the same order, the values of `COc1cccc2c1ccn2/C=C/C(=O)NCCc1ccccc1-c1ncccn1` [Example 39] are 1.5 to 6.5 and “++ (not less than 6.5 times)”.
In the same order, the values of `COc1cccc2c(/C=C/C(=O)NCCc3cc(F)ccc3-c3ccccc3)c[nH]c12` [Example 12] are 1.5 to 6.5 and “++ (not less than 6.5 times)”.
`CCOc1ncccc1CCNC(=O)/C=C/c1c[nH]c2c(OC)cccc12` [Example 29, (E)-N-[2-(2-ethoxypyridine-3-yl)ethyl]-3-(7-methoxy-1H-indol-3-yl)prop-2-enamide]: under setting [1], the fold induction at 10 µM is 1.5 to 6.5. Also, the “Amount … (vs. Control)” value (compound 10 μM added at Day 3) is reported as “++ (not less than 6.5 times)”.
`COc1cccc2c(/C=C/C(=O)NCCc3ccccc3OCC3CC3)c[nH]c12` [Example 6]: the fold induction at 10 µM was in the range of 1.5 to 6.5. For the same compound, for the setting “compound 10 μM added at Day 3”, the “Amount … (vs. Control)” value is given as “++ (not less than 6.5 times)”.
For `COc1cccc2c(/C=C/C(=O)NCCc3ccccc3-c3ccccc3)cn(C)c12` [Example 23] the same measures were 1.5 to 6.5 and “++ (not less than 6.5 times)”.
Regarding `COc1cccc2c(/C=C/C(=O)NCCc3ccccc3-c3ccc(F)cc3)c[nH]c12` [Example 28], under setting [1], the fold induction at 10 µM lay within 1.5 to 6.5. Also, the “Amount … (vs. Control)” value (compound 10 μM added at Day 3) is “++ (not less than 6.5 times)”.
For `COc1cccc2c(/C=C/C(=O)N(C)CCc3ccccc3OCC3CC3)cn(C)c12` [Example 10, (E)-N-[2-[2-(cyclopropylmethoxy)phenyl]ethyl]-3-(7-methoxy-1-methylindol-3-yl)-N-methylprop-2-enamide] the same measures were 1.5 to 6.5 and “++ (not less than 6.5 times)”.
In the same order, the values of `COc1cccc2c(/C=C/C(=O)NCCc3ccccc3-c3ncccn3)c[nH]c12` [Example 17, (E)-3-(7-methoxy-1H-indol-3-yl)-N-[2-(2-pyrimidin-2-ylphenyl)ethyl]prop-2-enamide] are 1.5 to 6.5 and “++ (not less than 6.5 times)”.
In the case of `COc1cccc2c(/C=C/C(=O)NCCc3ccccc3-c3ncc(C)cn3)c[nH]c12` [Example 52], under setting [1], the fold induction at 10 µM is 1.5 to 6.5. For the setting “compound 10 μM added at Day 3”, the “Amount … (vs. Control)” value is “++ (not less than 6.5 times)”.
For `COc1cccc2c(/C=C/C(=O)NCCc3ccccc3-c3ccccn3)c[nH]c12` [Example 7] the same measures were 1.5 to 6.5 and “++ (not less than 6.5 times)”.
For `COc1cccc2c(/C=C/C(=O)NCCc3ccccc3-c3ccccc3F)c[nH]c12` [Example 27] the same measures were 1.5 to 6.5 and “++ (not less than 6.5 times)”.
In the same order, the values of `COc1cnc(-c2ccccc2CCNC(=O)/C=C/c2c[nH]c3c(OC)cccc23)nc1` [Example 56] are 1.5 to 6.5 and “++ (not less than 6.5 times)”.
As for `COCCOc1ccccc1CCNC(=O)/C=C/c1c[nH]c2c(OC)cccc12` [Example 35], under setting [1], the fold induction at 10 µM lay within 1.5 to 6.5. For the same compound, under “compound 10 μM added at Day 3”, the “Amount … (vs. Control)” value is “++ (not less than 6.5 times)”.
In the same order, the values of `COc1cccc2c(/C=C/C(=O)NCCc3sccc3-c3ccccn3)c[nH]c12` [Example 32] are 1.5 to 6.5 and “++ (not less than 6.5 times)”.
In the same order, the values of `CCSc1ccccc1CCNC(=O)/C=C/c1cn(C(C)=O)c2c(OC)cccc12` [Example 9] are 1.5 to 6.5 and “++ (not less than 6.5 times)”.
Turning to `Cc1ccnc2c(/C=C/C(=O)NCCc3ccccc3-c3ncccn3)c[nH]c12` [Example 41], under setting [1], the fold induction at 10 µM fell in the range of 1.5 to 6.5. Further, the “Amount … (vs. Control)” value (compound 10 μM added at Day 3) is listed as “++ (not less than 6.5 times)”.
As to `COc1cccc2c(/C=C/C(=O)NCCc3ccccc3-c3ccsc3)c[nH]c12` [Example 20], the fold induction at 10 µM is 1.5 to 6.5. The “Amount … (vs. Control)” value (compound 10 μM added at Day 3) is “++ (not less than 6.5 times)”.
As to `COC(=O)c1ccccc1CCNC(=O)/C=C/c1c[nH]c2c(OC)cccc12` [Example 8], the fold induction at 10 µM under setting [1] was 1.5 to 6.5. In addition, under “compound 10 μM added at Day 3”, the “Amount … (vs. Control)” value is given as “++ (not less than 6.5 times)”.
